The text below walks through data of US20260216362A1, “ANTI-BDCA2 ANTIBODY-DRUG CONJUGATE AND USE THEREOF” (DUALITY BIOLOGICS (SHANGHAI) CO., LTD., priority 2022, published 2026).

Data set [1] concerns cynomolgus monkey whole blood stimulated with CpG-A. Nature of the data set: IFN-α after in vitro CpG-A stimulation of whole blood of dosed cynomolgus monkeys. The format is in vivo. The following applies: 10 mg/kg i.v.; CpGA-stimulated whole blood. The method, then: (§1) Cytokine expression was detected by whole blood stimulation in vitro.
(§2) The cells were cultured at 37° C. for 18 h, and the supernatant was collected. The TNF-α and IFN-α concentration levels in the supernatant were detected using an ELISA kit.
(§3) IFN-α concentration assay was performed using a Mabtech Human IFN-α (pan specific) ELISA kit (Cat. No. 3425-1H-20). 50 μL of serially diluted cytokine standard was added to each standard well, 50 μL of test sample was added to each sample well, and 50 μL of PBS was added to each blank control well. The cells were incubated at 37° C. for 2 h. The plate was washed 3 times, the liquid in each well was removed, and 300 µL of 1× PBST buffer working solution was added to each well; and after 1 minute of residence, the liquid in each well was discarded. 100 μL of detection antibody working solution was added to each well, and the cells were incubated at 37° C. for 1 h. […] The reading at wavelength 450 nm was detected using a Molecular device spectra max plus384 instrument within 10 min after the reaction was stopped.
(§4) Evaluation criteria in FIGS. 12-13: the average expression level changes of IFNα/TNFα were evaluated after in vitro stimulation of the whole blood with CpGA at 200 μg/mL on days 0-33 after administration. […]

Data set [2] has the same test system. In words: TNF-α after in vitro CpG-A stimulation of whole blood of dosed cynomolgus monkeys. The class given is in vivo. The following applies: 10 mg/kg i.v.; CpGA-stimulated whole blood. As for the experimental part: as §1, §2
as §3, with “TNF-α” for “IFN-α”, “R&D Primate TNF-α DuoSet” for “Mabtech Human IFN-α (pan specific)”, “DY1070).” for “3425-1H-20).”, “times:” for “times,”, “μL” for “µL”
as §4

Data set [3] concerns pDCs in the peripheral blood of cynomolgus monkeys. In words: pDC percentage and BDCA2 expression level on pDCs in peripheral blood of dosed cynomolgus monkeys by FACS. The following applies: 10 mg/kg intravenous. For orientation: In flow cytometry, cells or beads pass a laser one at a time.
Experimental: Nine female cynomolgus monkeys were divided into 3 groups, 3 cynomolgus monkeys per group.
The pDC percentage in the peripheral blood and the BDCA2 expression level on the surface of pDCs were detected by FACS.
Venous blood of the cynomolgus monkeys was collected by using a heparin anticoagulation tube, 6 mL of red blood cell lysis buffer was added to 300 μL of the blood, and the resulting mixture was placed at room temperature for 10 min. The cells were collected by centrifugation at 400 g for 5 min at room temperature. The cells were washed with PBS and resuspended in 100 μL of cell staining buffer (PBS+1% FBS). 5 μL of Fc Block was added to the cell suspension and left to stand at 4° C. for 10 min. […] The cells were washed twice with PBS, resuspended in 200 μL of the cell staining buffer, and analyzed by using a flow cytometer.

On to “BIIB059: reference antibody specifically binding to BDCA2, sequence derived from U.S. Pat. No. 9,902,775B2; SEQ ID NO: 25 and 26 [reference compound]”, for which, in data set [1], the “IFN-α expression level compared to the blank control group” value is listed as “reduced”. Besides, the “TNFα expression level compared to the blank control group” value in data set [2] was “no significant change”. Further, in data set [3], the “BDCA2 level on the surface of pDCs in the blood compared to the blank control” value is listed as “reduced” and the “pDC percentage in the blood compared to the blank control” value was “no significant change”.
